Format in all cases: binding
Details in all cases: Compound Concentration 10 µM

For assay [1], the target named is T1, panel of 442 kinases (Homo sapiens, UniProt P11309).
T1 construct: purchased KINOMEscan
The source says:
(§1) We assessed the selectivity of members of this scaffold using the KINOMEscan methodology across a near comprehensive panel of 442 kinases [[18,27]].

Assay [2] deals with T2, panel of 442 kinases (Homo sapiens, UniProt Q13164).
T2 construct: purchased KINOMEscan
Source text: as §1

The target of assay [3] is T3, panel of 442 kinases (Homo sapiens, UniProt Q8WTQ7).
T3 construct: purchased KINOMEscan
T3 sequence (Q8WTQ7 1-553): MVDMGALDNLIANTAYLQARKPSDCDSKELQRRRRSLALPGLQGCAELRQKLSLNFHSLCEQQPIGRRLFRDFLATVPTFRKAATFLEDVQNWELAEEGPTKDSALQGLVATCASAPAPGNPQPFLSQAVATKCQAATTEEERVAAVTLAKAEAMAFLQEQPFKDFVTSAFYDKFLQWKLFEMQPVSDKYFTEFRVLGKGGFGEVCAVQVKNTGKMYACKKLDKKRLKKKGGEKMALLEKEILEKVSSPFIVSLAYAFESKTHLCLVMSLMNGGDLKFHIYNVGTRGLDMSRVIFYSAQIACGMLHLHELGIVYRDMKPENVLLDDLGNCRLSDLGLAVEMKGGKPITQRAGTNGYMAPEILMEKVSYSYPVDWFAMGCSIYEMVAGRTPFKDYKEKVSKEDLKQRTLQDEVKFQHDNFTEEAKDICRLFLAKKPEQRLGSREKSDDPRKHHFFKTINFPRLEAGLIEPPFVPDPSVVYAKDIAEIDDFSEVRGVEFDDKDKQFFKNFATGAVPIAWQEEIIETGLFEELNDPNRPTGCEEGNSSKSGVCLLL
Source text: as §1

T2 sequence (Q13164 whole entry): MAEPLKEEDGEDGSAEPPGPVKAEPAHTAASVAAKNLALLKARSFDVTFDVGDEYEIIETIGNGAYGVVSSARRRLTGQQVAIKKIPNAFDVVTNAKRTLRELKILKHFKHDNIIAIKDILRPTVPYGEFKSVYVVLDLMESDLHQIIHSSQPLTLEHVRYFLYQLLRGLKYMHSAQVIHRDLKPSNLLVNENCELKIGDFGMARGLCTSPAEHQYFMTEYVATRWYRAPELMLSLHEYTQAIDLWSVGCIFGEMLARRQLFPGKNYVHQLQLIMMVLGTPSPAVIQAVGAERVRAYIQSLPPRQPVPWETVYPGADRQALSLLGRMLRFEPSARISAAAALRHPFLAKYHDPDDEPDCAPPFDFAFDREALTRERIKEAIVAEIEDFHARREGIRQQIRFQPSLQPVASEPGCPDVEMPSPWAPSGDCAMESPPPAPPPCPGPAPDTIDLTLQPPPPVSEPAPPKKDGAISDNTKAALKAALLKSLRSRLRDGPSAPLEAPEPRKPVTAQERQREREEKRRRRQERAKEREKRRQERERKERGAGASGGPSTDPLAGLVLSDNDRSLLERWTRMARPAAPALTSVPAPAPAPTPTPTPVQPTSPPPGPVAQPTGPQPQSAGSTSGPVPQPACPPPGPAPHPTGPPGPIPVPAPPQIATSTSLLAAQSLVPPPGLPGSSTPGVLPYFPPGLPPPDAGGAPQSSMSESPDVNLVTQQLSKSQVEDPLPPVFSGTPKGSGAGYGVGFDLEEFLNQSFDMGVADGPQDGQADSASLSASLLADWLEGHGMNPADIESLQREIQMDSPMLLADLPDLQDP
T1 sequence (P11309 whole entry): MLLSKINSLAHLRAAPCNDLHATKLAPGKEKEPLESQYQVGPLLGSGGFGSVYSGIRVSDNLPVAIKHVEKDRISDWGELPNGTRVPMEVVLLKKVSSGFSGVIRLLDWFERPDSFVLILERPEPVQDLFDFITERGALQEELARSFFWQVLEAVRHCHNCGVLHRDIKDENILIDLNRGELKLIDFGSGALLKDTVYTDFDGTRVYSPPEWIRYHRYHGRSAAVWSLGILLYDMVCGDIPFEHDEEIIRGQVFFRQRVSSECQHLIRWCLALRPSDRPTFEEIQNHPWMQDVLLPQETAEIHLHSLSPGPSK

On to `CCOc1cc(C(=O)N2CCC(N3CCN(C)CC3)CC2)ccc1Nc1ncc2c(n1)N(C1CCCC1)c1ccccc1C(=O)N2C` [Compound 26], for which the “KINOMEscan: PIM1” value at panel of 442 kinases [1] is 100. In addition, at panel of 442 kinases [2], the “KINOMEscan: ERK5” value was determined as 0.1. The “KINOMEscan: GRK7” value at panel of 442 kinases [3] was determined as 100.

For the molecule `COc1cc(C(=O)N2CCC(N3CCN(C)CC3)CC2)ccc1Nc1ncc2c(n1)N(C)c1ccccc1C(=O)N2C` [15 (LRRK2-IN-1)], on panel of 442 kinases [1], the “KINOMEscan: PIM1” value was 100. The “KINOMEscan: ERK5” value at panel of 442 kinases [2] is recorded as 0.05. In addition, the “KINOMEscan: GRK7” value on panel of 442 kinases [3] was 100.

For `COc1cc(C(=O)N2CCC(N3CCN(C)CC3)CC2)ccc1Nc1ncc2c(n1)N(C1CCCC1)c1ccccc1C(=O)N2C` [Compound 25, 11-cyclopentyl-2-((2-methoxy-4-(4-(4-methylpiperazin-1-yl)piperidine-1-carbonyl)phenyl)amino)-5-methyl-5H-benzo[e]pyrimido[5,4-b][1,4]diazepin-6(11H)-one], on panel of 442 kinases [1], the “KINOMEscan: PIM1” value was determined as 97. In addition, the “KINOMEscan: ERK5” value on panel of 442 kinases [2] came out at 0.05. In addition, on panel of 442 kinases [3], the “KINOMEscan: GRK7” value amounted to 94.

For the origin of these results see paper PMC3914206.
